Measurements from patent publication US20260297042A1, “BIARYLAMIDE DERIVATIVES AND THEIR USE AS PKMYT1 INHIBITORS” (CANCER RESEARCH TECHNOLOGY LIMITED, priority 2023, published 2026).
Counter-ions that a name gives are not always drawn.

Columns and labels:
[1] = molecular target: T1, Human PKMYT1 (Homo sapiens, UniProt Q99640); experiment: PKMYT1 biochemical ADP-Glo enzymatic assay; conditions: ADP-Glo
T1 construct: Human PKMYT1 75-362 was cloned as a TEV cleavable 6xHis fusion; 6xHis (TEV cleavable) (cleaved yes); made in house; host or cells: bacterial cells
T1 sequence (Q99640 75-362): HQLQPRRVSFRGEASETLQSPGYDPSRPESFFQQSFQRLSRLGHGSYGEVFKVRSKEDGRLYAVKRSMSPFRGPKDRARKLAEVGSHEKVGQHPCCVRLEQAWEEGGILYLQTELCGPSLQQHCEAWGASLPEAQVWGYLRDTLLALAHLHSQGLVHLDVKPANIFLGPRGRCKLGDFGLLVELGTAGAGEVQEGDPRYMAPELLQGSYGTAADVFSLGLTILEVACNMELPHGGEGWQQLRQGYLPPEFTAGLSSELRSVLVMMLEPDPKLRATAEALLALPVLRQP
In short: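 Luminescent ADP-Glo Max read-out of ADP produced by 15 nM PKMYT1 (residues 75-362, bacterial, His-tag removed) from 500 µM ATP without peptide substrate. Reaction: 50 mM HEPES pH 7.5, 10 mM MgCl2, 1 mM EGTA, 0.01% Brij-35, 60 min, 26 °C. IC50 values fitted from 10-point curves.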

[2] = molecular target: T2, WEE1 (Homo sapiens, UniProt P30291); experiment: Selectivity versus WEE1 assay (ADP-Glo enzymatic assay); assay type: biochemical; conditions: for IC50: ADP-Glo; for PKMYT1 vs. WEE1 selectivity: fold difference in selectivity for PKMYT1 over WEE1
T2 construct: purchased Thermo Fisher PR7373A
T2 sequence (P30291 whole entry): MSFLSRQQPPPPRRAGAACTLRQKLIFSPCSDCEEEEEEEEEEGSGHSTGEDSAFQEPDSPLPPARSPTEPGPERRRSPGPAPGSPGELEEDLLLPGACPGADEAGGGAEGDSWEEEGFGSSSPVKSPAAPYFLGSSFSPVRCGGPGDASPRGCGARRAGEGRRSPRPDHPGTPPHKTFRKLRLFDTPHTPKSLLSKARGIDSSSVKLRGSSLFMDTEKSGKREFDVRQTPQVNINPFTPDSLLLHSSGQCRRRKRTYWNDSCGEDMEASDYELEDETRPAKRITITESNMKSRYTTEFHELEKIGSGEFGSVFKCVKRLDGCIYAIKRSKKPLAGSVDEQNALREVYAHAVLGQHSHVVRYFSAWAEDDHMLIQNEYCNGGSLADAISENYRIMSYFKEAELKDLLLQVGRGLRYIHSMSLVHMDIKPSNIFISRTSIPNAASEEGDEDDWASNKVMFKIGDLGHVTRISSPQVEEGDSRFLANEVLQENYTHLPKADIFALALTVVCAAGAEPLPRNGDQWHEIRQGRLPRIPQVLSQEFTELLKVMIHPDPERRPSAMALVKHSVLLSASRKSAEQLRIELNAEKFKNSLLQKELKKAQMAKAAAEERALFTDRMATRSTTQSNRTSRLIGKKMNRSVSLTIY
In short: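 ADP-Glo luminescence read-out after a 60 min reaction at 26° C, initiated by 30 µM ATP, with 15 nM enzyme in HEPES pH 7.5/MgCl2/EGTA/Brij-35 buffer containing 1% DMSO. Replicate IC50 values had to agree within 3-fold and fits needed r2 >0.9.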

[3] = 15 nM PKMYT1 kinase domain, 500 µM ATP, 60 minutes at 26° C., banded
[4] = 15 nM WEE1, 60 minutes at 26° C., banded
[5] = banded, ">N" = at least in this band but could be higher
[6] = PKMYT1 kinase domain 15 nM, banded values

SMILES	IC50 [1, 3] [µM]	IC50 [2, 4] [µM]	PKMYT1 vs. WEE1 selectivity [2, 5]	IC50 [1, 6] [µM]	IC50 ([2]; WEE1 15 nM, banded values) [µM]	PKMYT1 vs. WEE1 selectivity ([2]; banded)
Cc1ccc(O)c(C)c1NC(=O)c1cnc(Nc2ccn([C@H]3CCCNC3)n2)s1 [BAA-054, N-(3-hydroxy-2,6-dimethyl-phenyl)-2-[1-[(3S)-3-piperidyl]pyrazol-3-yllamino]thiazole-5-carboxamide (hydrochloride)]	1 to 11	> 11	W (10-<100 fold)			
Cc1ccc(O)c(C)c1NC(=O)c1cnc(Nc2ccc(F)cc2F)s1 [BAA-277, 2-((2,4-difluorophenyl)amino)-N-(3-hydroxy-2,6-dimethylphenyl)thiazole-5-carboxamide]	0.05 to 1	> 11	X (100-<1000 fold)			
CCNC(=O)Cn1ccc(Nc2ncc(C(=O)Nc3c(C)ccc(O)c3C)s2)n1 [BAA-188]	< 0.05	> 11	Y (1000-5000 fold)			
Cc1ccc(O)c(C)c1NC(=O)c1cnc(Nc2ccn(CC(=O)N3CC4C(C3)C4(F)F)n2)s1 (stereo not drawn) [BAA-194]	< 0.05	> 11	Y (1000-5000 fold)			
Cc1ccc(O)c(C)c1NC(=O)c1cnc(Nc2ncn(C)n2)s1 [BAA-265, N-(3-hydroxy-2,6-dimethylphenyl)-2-((1-methyl-1H-1,2,4-triazol-3-yl)amino)thiazole-5-carboxamide]	< 0.05	> 11	X (100-<1000 fold)			
Cc1ccc(O)c(C)c1NC(=O)c1cnc(Nc2ccn(CC(=O)N3CCC4(CCNC4)CC3)n2)s1 [BAA-225, N-(3-hydroxy-2,6-dimethylphenyl)-2-((1-(2-oxo-2-(2,8-diazaspiro[4.5]decan-8-yl)ethyl)-1H-pyrazol-3-yl)amino)thiazole-5-carboxamide]	< 0.05	> 11	X (100-<1000 fold)			
Cc1ccc(O)c(C)c1NC(=O)c1cnc(Nc2ccn(CC(=O)N3CCN(S(C)(=O)=O)CC3)n2)s1 [BAA-142]	< 0.05	> 11	X (100-<1000 fold)			
Cc1ccc(O)c(C)c1NC(=O)c1cnc(NCC2CC2)s1 [BAA-347]	0.05 to 1	> 11	X (100-<1000 fold)			
COCCN(CCOC)C(=O)Cn1cc(C)c(Nc2ncc(C(=O)Nc3c(C)ccc(O)c3C)s2)n1 [BAA-542, 2-((1-(2-(bis(2-methoxyethyl)amino)-2-oxoethyl)-4-methyl-1H-pyrazol-3-yl)amino)-N-(3-hydroxy-2,6-dimethyl-phenyl)thiazole-5-carboxamide]				< 0.05	> 11	X (100-<1000 fold)
Cc1ccc(O)c(C)c1NC(=O)c1cnc(Nc2ccn(CC(=O)N3CCN(C(=O)OC(C)(C)C)CC3)n2)s1 [BAA-140, tert-butyl 4-[2-[3-[5-[(3-hydroxy-2,6-dimethyl-phenyl)carbamoyl]thiazol-2-ylamino]pyrazol-1-yl]acetyl]piperazine-1-carboxylate]	< 0.05	> 11	Y (1000-5000 fold)			
Cc1c[nH]nc1Nc1ncc(C(=O)Nc2c(C)ccc(O)c2C)s1 [BAA-388, N-(3-hydroxy-2,6-dimethylphenyl)-2-((4-methyl-1H-pyrazol-3-yl)amino)thiazole-5-carboxamide]	< 0.05	1 to 11	X (100-<1000 fold)			
Cc1ccc(O)c(C)c1NC(=O)c1cnc(Nc2nn(-c3ccccc3)cc2C#N)s1 [BAA-389, 2-((4-cyano-1-phenyl-1H-pyrazol-3-yl)amino)-N-(3-hydroxy-2,6-dimethylphenyl)thiazole-5-carboxamide]	< 0.05	> 11	Y (1000-5000 fold)			
Cc1ccc(O)c(C)c1NC(=O)c1cnc(Nc2ccn(CC(=O)NC3CCN(C)CC3)n2)s1 [BAA-151]	0.05 to 1	> 11	X (100-<1000 fold)			
Cc1ccc(O)c(C)c1NC(=O)c1cnc(Nc2cc(C)n(CC(=O)N3CCCC3)n2)s1 [BAA-203]	< 0.05	> 11	Y (1000-5000 fold)			
Cc1cn(CC(=O)N(C)CC(F)(F)F)nc1Nc1ncc(C(=O)Nc2c(C)ccc(O)c2C)s1 [BAA-514, N-(3-hydroxy-2,6-dimethylphenyl)-2-((4-methyl-1-(2-(methyl(2,2,2-trifluoroethyl)amino)-2-oxoethyl)-1H-pyrazol-3-yl)amino)thiazole-5-carboxamide]				< 0.05	1 to 11	X (100-<1000 fold)
Cc1ccc(O)c(C)c1NC(=O)c1cnc(Nc2cc(Cl)nc(C(F)(F)F)n2)s1 [BAA-287, 2-((6-chloro-2-(trifluoromethyl)pyrimidin-4-yl)amino)-N-(3-hydroxy-2,6-dimethylphenyl)thiazole-5-carboxamide]	< 0.05	> 11	Y (1000-5000 fold)			
COC(=O)CCC(=O)N1CC[C@@H](n2ccc(Nc3ncc(C(=O)Nc4c(C)ccc(O)c4C)s3)n2)C1 [BAA-091]	0.05 to 1	> 11	>X (100-<1000 fold)			
Cc1ccc(O)c(C)c1NC(=O)c1cnc(Nc2onc(C)c2C(N)=O)s1 [BAA-448, 5-((5-((3-hydroxy-2,6-dimethylphenyl)carbamoyl)thiazol-2-yl)amino)-3-methylisoxazole-4-carboxamide]				< 0.05	> 11	Y (1000-5000 fold)
Cc1ccc(O)c(C)c1NC(=O)c1cnc(Nc2cc(C)n(C(C)C(=O)N3CCN(C)CC3)n2)s1 (stereo not drawn) [BAA-511, N-(3-hydroxy-2,6-dimethylphenyl)-2-((5-methyl-1-(1-(4-methylpiperazin-1-yl)-1-oxopropan-2-yl)-1H-pyrazol-3-yl)amino)thiazole-5-carboxamide]				0.05 to 1	> 11	W (10-<100 fold)
Cc1ccc(O)c(C)c1NC(=O)c1cnc(Nc2ccn(CC(=O)N3CCN(C4CCCCC4)CC3)n2)s1 [BAA-187]	< 0.05	> 11	Y (1000-5000 fold)			
Cc1ccc(O)c(C)c1NC(=O)c1cnc(Nc2ccn(CC(=O)N3CCC[C@H](O)C3)n2)s1 [BAA-163]	< 0.05	> 11	Y (1000-5000 fold)			
Cc1ccc(O)c(C)c1NC(=O)c1cnc(Nc2ccn(C(C)C(=O)N3CCN(C)CC3)n2)s1 (stereo not drawn) [BAA-534, N-(3-hydroxy-2,6-dimethylphenyl)-2-((1-(1-(4-methylpiperazin-1-yl)-1-oxopropan-2-yl)-1H-pyrazol-3-yl)amino)thiazole-5-carboxamide]				< 0.05	> 11	Y (1000-5000 fold)
Cc1ccc(O)c(C)c1NC(=O)c1cnc(NCC2CCN(C(=O)OC(C)(C)C)CC2)s1 [BAA-066]	0.05 to 1	> 11	>X (100-<1000 fold)			
CCC(C(=O)N1CCN(C)CC1)n1ccc(Nc2ncc(C(=O)Nc3c(C)ccc(O)c3C)s2)n1 (stereo not drawn) [BAA-533, N-(3-hydroxy-2,6-dimethylphenyl)-2-((1-(1-(4-methylpiperazin-1-yl)-1-oxobutan-2-yl)-1H-pyrazol-3-yl)amino)thiazole-5-carboxamide]				< 0.05	> 11	Y (1000-5000 fold)
COc1ccc(CC(=O)N2CCC(CNc3ncc(C(=O)Nc4c(C)ccc(O)c4C)s3)CC2)nc1 [BAA-100, N-(3-Hydroxy-2,6-dimethyl-phenyl)-2-[[1-[2-(5-methoxy-2-pyridyl)acetyl]-4-piperidyl]methylamino]thiazole-5-carboxamide]	0.05 to 1	> 11	>X (100-<1000 fold)			
Cc1ccc(O)c(C)c1NC(=O)c1cnc(Nc2ncc(C(C)(C)C)o2)s1 [BAA-449, 2-((5-(tert-butyl)oxazol-2-yl)amino)-N-(3-hydroxy-2,6-dimethylphenyl)thiazole-5-carboxamide]				0.05 to 1	> 11	W (10-<100 fold)
COc1cnc(Cl)nc1Nc1ncc(C(=O)Nc2c(C)ccc(O)c2C)s1 [BAA-568, 2-((2-chloro-5-methoxypyrimidin-4-yl)amino)-N-(3-hydroxy-2,6-dimethylphenyl)thiazole-5-carboxamide]				< 0.05	> 11	X (100-<1000 fold)
Cc1ccc(O)c(C)c1NC(=O)c1cnc(Nc2ccn(CC(=O)N3C[C@@H]4C[C@H]3CN4C(=O)OC(C)(C)C)n2)s1 [BAA-143]	< 0.05	> 11	Y (1000-5000 fold)			
